{"source": "patent US20020137779A1", "about": "“Use of L-2-oxothiazolidine-4-carboxylic acid for the treatment of type 2 diabetes” (Advanced Biochemicals Inc., priority 2001, published 2002)", "type_in_all_cases": "in vivo, mouse", "key": {"[1]": {"system": "type 2 diabetes mice (C57BL/KsJ-db/db Jcl)", "experiment": "serum insulin after a single oral dose and glucose loading (Example 2)", "details": "for Conc. of insulin: glucose 1 g/kg i.p. after 5 hours, serum 30 minutes later", "method": "Second step; Determining optimum L-2-oxothiazolidine-4-carboxylic acid concentration which is appropriate for enhancing insulin secretion and lowering blood glucose levels in a type 2 diabetes mouse, by administering 0-400 mg/kg of L-2-oxothiazolidine-4-carboxylic acid orally,\nThe present example is to show an appropriate concentration of L-2-oxothiazolidine-4-carboxylic acid for the purpose of improving the ability of insulin secretion and lowering blood glucose levels, by varying the concentrations of L-2-oxothiazolidine-4-carboxylic acid in a single oral dose to type 2 diabetes mice.\nThe present inventors ascertained the effect of various concentrations of L-2-oxothiazolidine-4-carboxylic acid on lowering blood glucose level and insulin secretion. in which experiments enough sterilized-feed and water was given to 6 week old C57BL mice(Samtako, purchased from Clea, Japan) in the light condition of 12L: 12D for a week, bred the mice in the incubator of A.B.J Co.(Building 1 Chonbuk National University Medical School, Chonju, Korea) for a week, and no feed but water was given to the mice for 13 hours before insulin and glucose levels were measured.\n0.2 ml of PBS (pH 7.4) was orally given to the control group(5 mice) using feeding needle, and 1.5-400 mg/kg of L-2-oxothiazolidine-4-carboxylic acid, dissolved in 0.2 ml of PBS and its pH was adjusted to 7.2 with 3 N NaOH(Junsei, Japan), was orally administered to experimental group(5 mice). After 5 hours of the drug administration, glucose(Sigma, USA) was injected intraperitoneally at the concentration of 1 g/kg, and incubated the mice for 30 minutes. Immediately after the mice were anesthetized with ether, the thoraces of the mice was incised to take blood, serum was isolated, and the insulin concentration of the mice-serum was measured by radioimmunoassay using rat insulin assay kit(Amersham Pharmacia Bio Co., USA)."}, "[2]": {"system": "type 2 diabetes mice (C57BL/KsJ-db/db Jcl)", "experiment": "blood glucose levels after glucose intake, single oral administration (Example 3)", "details": "for blood glucose level / decrease of blood glucose level vs control group: 30 min after glucose intake", "method": "Third step; Determining the abilities of lowering blood glucose level and increasing insulin secretion ability following glucose loading, by administering a single dose of 8-80 mg/kg of L-2-oxothiazolidine-4-carboxylic acid to a type 2 diabetes mouse, Fourth step; Examining the effect of long term administration of L-2-oxothiazolidine-4-carboxylic acid on lowering blood glucose levels,\nUnder the same breeding condition as in EXAMPLE 2, no feed but water was given to 7 week old type 2 diabetes mice (C57BL/KsJ-db/db Jel, Clea, Japan) for 13 hours. 0.2 ml of PBS was orally given to the control group(5 mice) using feeding needle, and 8-80 mg/kg of L-2-oxothiazolidine-4-carboxylic acid dissolved in 0.2 ml of PBS was orally administered to the experimental group(5 mice). After 5 hours of drug administration, 1 g/kg of glucose (Sigma, USA) was intraperitoneally injected and the mice were maintained for 30 to 120 minutes. The blood glucose levels of type 2 diabetes mice at various time points were measured by the glucose oxidase method using a glucose analyzer(One-touch Basic, Lifescan, USA), and serum insulin levels were determined using a radioimmunoassay, as described in EXAMPLE 2."}, "[3]": {"experiment": "body weight during four weeks of oral administration (Example 4)", "details": "40-80 mg/kg orally for four weeks; measured at one, two and four week points", "method": "Seven week old type 2 diabetes mice were maintained as in EXAMPLE 2. 0.2 ml of PBS (pH 7.4) was given to a control group twice a day for 1-4 weeks, and 40-80 mg/kg of L-2-oxothiazolidine-4-carboxylic acid dissolved in 0.2 ml of PBS of which pH was adjusted to 7.4 with 3 N NaOH(Junsei, Japan) was orally administered to an experimental group."}, "[4]": {"system": "pancreatic islets of type 2 diabetes mice", "experiment": "morphological examination of pancreatic islets, hematoxylin-eosine and anti-insulin immunohistochemistry (Example 6)", "details": "80 mg/kg for four weeks, 120 min after glucose 1 g/kg i.p.", "method": "Sixth step: Identifying the ability of insulin secretion of the control group and the type 2 diabetes mouse to which 80 mg/kg of L-2-oxothiazolidine-4-carboxylic acid for 4 weeks determined by immunohistochemical staining with anti-insulin antibody.\nL-2-oxothiazolidine-4-carboxylic acid or PBS alone was administered to 3 mice in each group, 1 g/kg of glucose was intraperitoneally injected in the fasted state, and they were sacrificed by cervical dislocation after 120 min. of the injection. Immediately, the abdominal region was incised, pancreases were then removed from the mice and fixed more than 12 hours in a cold solution of 4% paraformaldehyde in PBS(pH 7.4, Sigma, USA). Pancreas separated free of intestine and adipose tissue(fatty tissue), rinsed three times with fresh fixing solution, and the fixed tissues were processed routinely for paraffin embedding. The tissue sections were cut off at 5 ^μm interval using microtome(Sandon, Germany) from the paraffin embedding, and adhered to a slide coated with poly-L-lysine(Sigma, USA) for immunohistochemistry.\nTo remove the paraffin from the slides on which pancreatic tissue was coated, the slides were repeatedly treated with xylene for 5 min., and the tissue sections were rehydrated with a series of 100-70% alcohol and incubated with PBS(pH 7.4) for 5 minutes. […]"}}}
{"smiles": "O=C1NC(C(=O)O)CS1", "note": "[OTC, L-2-oxothiazolidine-4-carboxylic acid]", "values": [{"measurement": "insulin secretion ability compared to the control group", "setting": "[1]; 3-20 mg/kg single oral dose, p<0.05", "value": "improvement of insulin secretion ability"}, {"measurement": "insulin secretion ability compared to the control group", "setting": "[1]; 40-160 mg/kg single oral dose, p<0.001", "value": "more than 2 times"}, {"measurement": "Conc. of insulin", "setting": "[1]; OTC 1.5 mg/kg single oral dose", "value": 878, "unit": "pmol/L"}, {"measurement": "Conc. of insulin", "setting": "[1]; OTC 3 mg/kg single oral dose", "value": 908, "unit": "pmol/L"}, {"measurement": "Conc. of insulin", "setting": "[1]; OTC 10 mg/kg single oral dose", "value": 1103, "unit": "pmol/L"}, {"measurement": "Conc. of insulin", "setting": "[1]; OTC 20 mg/kg single oral dose", "value": "1,205 pmol/l"}, {"measurement": "Conc. of insulin", "setting": "[1]; OTC 40 mg/kg single oral dose", "value": "1,535 pmol/l"}, {"measurement": "Conc. of insulin", "setting": "[1]; OTC 80 mg/kg single oral dose", "value": "1,750 pmol/l"}, {"measurement": "Conc. of insulin", "setting": "[1]; OTC 160 mg/kg single oral dose", "value": 1684, "unit": "pmol/L"}, {"measurement": "Conc. of insulin", "setting": "[1]; OTC 400 mg/kg single oral dose", "value": 1350, "unit": "pmol/L"}, {"measurement": "insulin secretion ability compared to the control group", "setting": "[1]; over 400 mg/kg single oral dose, p<0.005", "value": "salient improvement of insulin secretion ability"}, {"measurement": "blood glucose level", "setting": "[2]; 40 mg/kg single oral dose", "value": "295 ± 8.5", "unit": "mg/dL"}, {"measurement": "decrease of blood glucose level vs control group", "setting": "[2]; 40 mg/kg single oral dose", "value": 34.27, "unit": "%"}, {"measurement": "blood glucose level", "setting": "[2]; 80 mg/kg single oral dose", "value": "269 ± 6.85", "unit": "mg/dL"}, {"measurement": "decrease of blood glucose level vs control group", "setting": "[2]; 80 mg/kg single oral dose", "value": 40.01, "unit": "%"}, {"measurement": "duration of the lowering effect of blood glucose levels after the intake of glucose", "setting": "[2]; 40-80 mg/kg single oral dose", "value": "about 60 min"}, {"measurement": "weight of the mice", "setting": "[3]", "value": "no weight difference"}, {"measurement": "densities of the capsule and the β-cells in the capsule, hematoxylin-eosine staining", "setting": "[4]", "value": "high"}, {"measurement": "positive response to anti-insulin antibody of pancreatic β-islet cells", "setting": "[4]", "value": "distinctly increased"}]}
